From patent US10104882B2, “Methods and compositions for preventing and treating electrophile-mediated toxicities” (priority 2013, dated 2018)
“Also recorded” adds a separate entry of the source. Where two headings read alike, the source gives them in different places.

Assays:
[1] = Prevention of NAPQI-induced GSH sulfhydryl loss by 1,3-dicarbonyl compounds (in chemico); assay type: biochemical; conditions: for prevention of NAPQI-induced thiol loss: equimolar concentrations (50 μM), pH 7.4
Source text: FIG. 3. […] Numbers in parentheses are respective IC50 values.
FIG. 4. […] Numbers in parentheses are respective IC50 values.
(§1) However, acrolein and other electrophiles used in this research are α,β-unsaturated carbonyls, whereas NAPQI and pBQ are quinone derivatives. […] Although both compounds are relatively acidic (low pKa values), thiol protection is limited since the corresponding adduct reactions involving the enolates of these acids are likely to be reversible. […] 2-ACP was the most protective 1,3-dicarbonyl compound tested in this and other studies^54 and was, therefore, the focus of subsequent research. […] 2-ACP (50 μM) was also effective at protecting thiol loss induced by pBQ, the degradation product of NAPQI (data not shown). […] These electrophiles target nucleophilic sulfhydryl groups that play critical roles in protein function and cellular redox balance.

[2] = cited from earlier work; for effect on rate of acrolein-induced sulfhydryl (thiol) loss: physiological conditions (pH 7.4); for thiol protection against acrolein-induced thiol loss: pH 9.0
[3] = Ionization parameters (pKa, % anion); assay type: physicochemical; conditions: for fraction present as nucleophilic enolate/thiolate anion: physiological pH (7.4); for relative enolate concentration in solution: pH 7 / neutral conditions
[4] = system: Rat striatal synaptosomes; conditions: acrolein 1-1000 μM with cytoprotectant 500 μM; cited from earlier work
[5] = system: MN9D cells; conditions: cited from earlier work; for protection from acrolein-induced cell loss: pre-incubation
[6] = Electrophile concentration-dependent loss of GSH sulfhydryl groups (in chemico); assay type: biochemical; parameters: Log IC50: unit not given here; conditions: for Log IC50: logarithmic value, electrophile concentration that causes 50% loss of the GSH sulfhydryl group
Source text: as §1

[7] = system: MN9D cells; conditions: cited from earlier work
[8] = in chemico; cited from earlier work
[9] = system: rat liver; assay: Acute ischemia-reperfusion injury of rat liver; assay type: in vivo, rats
Protocol: FIG. 9. Effect of 2-ACP on liver ischemia. 2-ACP (2.40 mmol/kg) or vehicle was injected i.p. 10 mins before clamping the portal vasculature for 45 mins. At the completion of the Ischemic phase, clamps were removed and the liver was reperfused for 180 mins. Following reperfusion, blood samples were removed for analysis of liver enzymes (ALT, AST) and LDH in plasma. Joining lines indicate statistically significant differences in treatment groups at ***P<0.001 level of significance.
FIG. 10. Effect of 2-ACP on liver reperfusion. 2-ACP (2.40 mmol/kg) or vehicle was injected i.p. 10 mins before restoration of hepatic circulation (reperfusion phase). At the completion of reperfusion, blood samples were removed for analysis of liver enzymes (ALT, AST) and LDH (a general enzyme indicator of tissue injury) in plasma. Joining lines indicate statistically significant differences in treatment groups at ***P<0.001 level of significance.
FIG. 11. […] At the completion of reperfusion, blood samples were removed for analysis of liver enzymes (ALT, AST) and LDH (a general enzyme indicator of tissue injury) in plasma. Joining lines indicate statistically significant differences in treatment groups at ***P<0.001 level of significance.
IR injury is the pathophysiological basis for stroke, myocardial infarction and other organ failure. It is also an underlying cause of allograft rejection following tissue transplantation. To investigate the possibility that 2-ACP and other nucleophilic dicarbonyl derivatives might be useful in preventing IR-mediated organ damage, rats were anesthetized and I/R was induced by clamping the portal vein and hepatic artery using commercially available microclips placed at the porta hepatis. The ischemic state was maintained for 45 mins, which affected approximately 70% of the liver mass. Following removal of the microclamps, hepatic reperfusion was maintained for 180 min. Animals were then sacrificed and plasma samples were taken for subsequent analysis of lactate dehydrogenase (LDH; a general enzyme indicator of cell injury) and liver enzymes (AST and ALT). […] A sham group (laparotomy only) provided baseline data for the appearance of liver enzyme in plasma. […] This level of hepatocyte leakage indicates substantial irreversible cell injury. […] Thus, prior 2-ACP administration is able to diminish the pathophysiological disposition of the ischemic phase. Further, amelioration of the ischemic phase truncates subsequent culmination of hepatocyte injury during reperfusion. To determine whether hepatoprotection was phase-specific and dose-dependent, 2-ACP (1.20-2.40 mmol/kg) was injected i.p. 10 mins prior to the restoration of hepatic circulation (reperfusion phase).

[10] = system: male C57 BL mice; assay: Mouse model of oral acetaminophen (APAP) overdose hepatotoxicity/lethality; assay type: in vivo; conditions: for changes in hepatic parameters, compound alone: no APAP
Protocol: FIG. 7A-7B. […] Hepatoprotectants were administered 20 mins before (−20), 20 mins after (+20) or 60 mins after (+60) APAP intoxication.
A separate group received the PEG400 vehicle 20 mins prior to AAP. […] Vehicle control mice (n=10) received sequential injections of PEG400 (i.p. followed by oral). At several times post-AAP administration (2, 6, 24, 48 and 168 hrs), groups of mice were anesthetized in a carbon dioxide chamber and heparinized blood samples were collected. Samples were centrifuged and resulting serum was retained for analyses (see below). Livers were also excised, weighed and tissue samples were collected for histopathological evaluation. Remaining tissue was snap frozen in liquid nitrogen. Hepatotoxicity was determined by quantification of serum alanine aminotransferase (ALT) and aspartate aminotransferase (AST) using colorimetric assays. Serum lactate dehydrogenase (LDH) was also measured as an index of generalized AAP-induced organ toxicity. To evaluate the extent of cellular oxidative stress in liver homogenates, the unsaturated aldehyde by-products of lipid peroxidation, HNE and malondialdhyde (MDA), were determined according to a modification of the Gerard-Monnier et al. method^27. In addition, soluble thiol contents were measured in homogenates according to LoPachin et al.^44.

[11] = Protection against pBQ-induced thiol loss (in chemico); assay type: biochemical; conditions: 50 μM
Source text: as §1

[12] = i.p. 2.40 mmol/kg 10 mins before ischemia (45 min), reperfusion 180 min
[13] = i.p. 10 mins before reperfusion, 2-ACP 1.20-2.40 mmol/kg, equimolar NAC

CC1(C)CC(=O)CC(=O)C1 [DMD, dimedone]
prevention of NAPQI-induced thiol loss [1]: ineffective
effect on rate of acrolein-induced sulfhydryl (thiol) loss [2]: substantially slowed
pKa [3]: 5.3
fraction present as nucleophilic enolate/thiolate anion [3]: 99%
change in acrolein IC50 for synaptosomal DA transport inhibition [4]: more modest

CCOC(=O)CC(=O)OCC [DEM, diethyl malonate]
thiol protection against acrolein-induced thiol loss [2]: significantly increased
effect on rate of acrolein-induced sulfhydryl (thiol) loss [2]: Neither diethyl malonate (DEM; a β-diester) nor 2,5-hexanedione (HD), a γ or 1,4-diketone, affected the rate of sulfhydryl loss
relative enolate concentration in solution [3]: < 0.1%
protection from acrolein-induced cell loss [5]: neither DEM nor HD was effective
change in acrolein IC50 for synaptosomal DA transport inhibition [4]: neither DEM nor HD significantly affected the acrolein IC50

CC(C)(C)C1=CC(=O)C=CC1=O [tBQ, tert-butylquinone]
Log IC50 [6]: 1.24

CCN1C(=O)C=CC1=O [NEM, N-ethylmaleimide]
Log IC50 [6]: 1.23

C=CC=O [Acrolein, acrolein]
Log IC50 [6]: 1.72
CC50 ([5]; read-out: LC50 (acrolein concentration producing 50% cell lethality), acrolein 50-150 μM): 96 µM

O=C1CCC(=O)C1 [CPD, 1,3-cyclopenanedione]
protection against H2O2-induced cell death [7]: ineffective
prevention of NAPQI-induced thiol loss [1]: minimal thiol protection
change in acrolein IC50 for synaptosomal DA transport inhibition [4]: relatively ineffective

CC(=O)N=C1C=CC(=O)C=C1 [NAPQI, N-acetyl-p-benzoquinone imine]
Log IC50 [6]: 0.92
IC50 ([6]; read-out: IC50 for NAPQI-induced GSH loss, NAPQI alone, NAPQI 2-128 μM, no protectant): 9.1 µM
second order rate constant for reaction with cysteine sulfhydryl groups [8]: 32000 M⁻¹ s⁻¹

CC1(C)OC(=O)CC(=O)O1 [MA, Meldrum's acid]
prevention of NAPQI-induced thiol loss [1]: ineffective
effect on rate of acrolein-induced sulfhydryl (thiol) loss [2]: substantially slowed
change in acrolein IC50 for synaptosomal DA transport inhibition [4]: more modest

COc1cc(/C=C/C(=O)CC(=O)/C=C/c2ccc(O)c(OC)c2)ccc1O [Curcumin, curcumin]
pKa ([3]; Table 1, read-out: pKa): 7.8
% Anion (pH = 7.4) [3]: 28.5%

CC(=O)N[C@@H](CS)C(=O)O [NAC, N-acetylcysteine]
protection against H2O2-induced cell death [7]: significantly less efficacious
prevention of NAPQI-induced thiol loss [1]: only minimal protection
plasma liver enzymes (ALT, AST) and LDH after I/R [9, 12]: did not prevent I/R liver injury
plasma liver enzymes (ALT, AST) and LDH after I/R [9, 13]: did not prevent I/R liver injury
pKa ([3]; Table 1, read-out: pKa): 9.5
% Anion (pH = 7.4) [3]: 0.8%
pKa ([3]; read-out: pKa): 9.6
changes in hepatic parameters, compound alone [10]: neither NAC nor ACP alone caused significant changes
protection from acrolein-induced cell loss [5]: completely prevented
change in acrolein IC50 for synaptosomal DA transport inhibition [4]: more modest

CC(=O)CCC(C)=O [HD, 2,5-hexanedione]
protection against H2O2-induced cell death [7]: ineffective
effect on rate of acrolein-induced sulfhydryl (thiol) loss [2]: Neither diethyl malonate (DEM; a β-diester) nor 2,5-hexanedione (HD), a γ or 1,4-diketone, affected the rate of sulfhydryl loss
protection from acrolein-induced cell loss [5]: neither DEM nor HD was effective
change in acrolein IC50 for synaptosomal DA transport inhibition [4]: neither DEM nor HD significantly affected the acrolein IC50

O=C1C=CC(=O)C=C1 [pBQ, p-benzoquinone]
Log IC50 [6]: 1.06

CC(=O)Nc1ccc(O)cc1 [APAP, N-acetyl-p-aminophenol]
lethality of oral APAP overdose ([10]; oral 500 mg/kg, mice, within 72 hrs): ~90%

N[C@@H](CCC(=O)N[C@@H](CS)C(=O)NCC(=O)O)C(=O)O [GSH, glutathione]
pKa ([3]; Table 1, read-out: pKa): 8.6
% Anion (pH = 7.4) [3]: 5.9%

CC(=O)C1CCCC1=O (stereo not shown) [2-ACP, 2-acetylcyclopentanone]
protection against H2O2-induced cell death [7]: completely prevented cell death
thiol protection against NAPQI over concentration range ([1]; 2-ACP 25-200 μM, NAPQI 2-128 μM): provides thiol protection over a broad range of concentrations
prevention of NAPQI-induced thiol loss [1]: three-fold increase in the respective IC50 value
plasma liver enzymes (ALT, AST) and LDH after I/R [9, 12]: considerable reductions in the plasma appearance of liver enzymes
plasma liver enzymes (ALT, AST) and LDH after I/R [9, 13]: substantial hepatocyte dose-dependent protection
effect on rate of acrolein-induced sulfhydryl (thiol) loss [2]: completely prevented
protection of thiol loss induced by pBQ [11]: effective
% Anion (pH = 7.4) [3]: 28.5%
fraction present as nucleophilic enolate/thiolate anion [3]: ~30%
changes in hepatic parameters, compound alone [10]: neither NAC nor ACP alone caused significant changes
protection from APAP-induced lethality (survival) ([10]; i.p. 2.40 mmol/kg, 20 min after (+20) APAP): complete protection
protection from APAP-induced lethality (survival) ([10]; i.p. 2.40 mmol/kg, 20 min before oral APAP 500 mg/kg, 7 day period): completely prevented APAP lethality; also recorded: complete protection
protection from APAP-induced lethality (survival) ([10]; i.p. 2.40 mmol/kg, 60 min after (+60) APAP): ineffective
biochemical indices of hepatocyte death (plasma ALT, AST, LDH) and oxidative stress (liver thiol loss, unsaturated aldehyde content) ([10]; i.p. pretreatment, oral APAP): prevented APAP-induced liver cell death
histopathology: liver centrilobular necrosis ([10]; i.p. pretreatment, oral APAP): prevented the liver centrilobular necrosis
dose-dependency of protection from APAP-induced lethality ([10]; i.p. pretreatment, 2-ACP 0.80-2.40 mmol/kg, NAC 4.80-7.20 mmol/kg): dose-dependent, although it occurred over a narrow dose-range
oral hepatoprotection at increased dose ([10]; oral 4.80 mmol/kg): improved oral 2-ACP hepatoprotection
protection from APAP-induced lethality (survival) ([10]; oral gavage 2.40 mmol/kg, 20 min before oral APAP): modest improvements in APAP survival rate
oral hepatoprotection with buffered gavage solution ([10]; oral, HEPES buffer pH 9.0): improved oral 2-ACP hepatoprotection
protection from acrolein-induced cell loss [5]: completely prevented
change in acrolein IC50 for synaptosomal DA transport inhibition [4]: largest increases

CC(=O)CC(C)=O [AcAc, acetylacetone]
prevention of NAPQI-induced thiol loss [1]: minimal thiol protection
thiol protection against acrolein-induced thiol loss [2]: virtually complete
effect on rate of acrolein-induced sulfhydryl (thiol) loss [2]: substantially slowed
pKa [3]: 9.0
protection from acrolein-induced cell loss [5]: moderately protective

CC(=O)CC(=O)C(F)(F)F [TFPD, 1,1,1-trifluoro-2,4-pentanedione]
fold protection against H2O2-induced cytotoxicity [7]: 3 fold
thiol protection against acrolein-induced thiol loss [2]: did not increase
effect on rate of acrolein-induced sulfhydryl (thiol) loss [2]: some thiol protection
relative enolate concentration in solution [3]: 99%
pKa ([3]; read-out: pKa): 4.7
protection from acrolein-induced cell loss [5]: moderately protective
change in acrolein IC50 for synaptosomal DA transport inhibition [4]: relatively ineffective
